Key:
Prothrombin = Prothrombin (Homo sapiens, UniProt P00734); assay: Inhibitory activity against alpha-human thrombin
Neutrophil elastase = molecular target: T1, Neutrophil elastase (Homo sapiens, UniProt P08246); assay: In vitro inhibitory activity against serine protease Elastase
T1 sequence (P08246 whole entry): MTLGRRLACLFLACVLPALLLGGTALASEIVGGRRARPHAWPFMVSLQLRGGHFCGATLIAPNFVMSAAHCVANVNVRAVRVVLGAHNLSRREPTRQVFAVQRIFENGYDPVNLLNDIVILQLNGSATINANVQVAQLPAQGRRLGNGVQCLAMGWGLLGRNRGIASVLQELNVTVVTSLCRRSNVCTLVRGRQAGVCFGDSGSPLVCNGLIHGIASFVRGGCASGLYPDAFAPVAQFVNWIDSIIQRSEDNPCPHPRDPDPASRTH

Rattus norvegicus = organism: Rattus norvegicus; assay: In vitro metabolic potential in rat liver microsomes; format: ADME
[1] = Disassociation constant was determined; format: ADME
[2] = Half life period by iv administration in dog at a dose of 6 mg/kg; format: ADME, organism-based, Canis lupus familiaris; design: dose 6 mg/kg, route intravenous; details: in vivo
[3] = Plasma clearance rate by iv administration in dog at a dose of 6 mg/kg; format: ADME, organism-based, Canis lupus familiaris; design: dose 6 mg/kg, route intravenous
[4] = Oral bioavailability in dog; format: ADME, organism-based, Canis lupus familiaris; details: in vivo
Mus musculus = organism: Mus musculus; assay: In vitro metabolic potential in mouse liver microsomes; format: ADME
Canis familiaris = organism: Canis familiaris; assay: In vitro metabolic potential in dog liver microsomes; format: ADME, Canis lupus familiaris
Chymotrypsinogen B = Chymotrypsinogen B (Homo sapiens, UniProt P17538); assay: In vitro inhibitory activity against serine protease Chymotrypsin
Chymotrypsinogen B, sequence (P17538 34-164 limits assumed, other chains not shown): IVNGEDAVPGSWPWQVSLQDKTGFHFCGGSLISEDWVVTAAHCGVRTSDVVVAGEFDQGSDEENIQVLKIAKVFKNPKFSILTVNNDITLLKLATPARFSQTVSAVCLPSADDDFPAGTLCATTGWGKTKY
Chymotrypsinogen B, sequence (P17538 167-263 limits assumed, other chains not shown): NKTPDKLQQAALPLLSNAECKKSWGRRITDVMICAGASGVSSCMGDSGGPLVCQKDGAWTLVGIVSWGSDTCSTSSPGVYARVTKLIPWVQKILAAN

Plasminogen = Plasminogen (Homo sapiens, UniProt P00747); assay: In vitro inhibitory activity against serine protease Plasmin
Plasminogen, sequence (P00747 97-580 limits assumed): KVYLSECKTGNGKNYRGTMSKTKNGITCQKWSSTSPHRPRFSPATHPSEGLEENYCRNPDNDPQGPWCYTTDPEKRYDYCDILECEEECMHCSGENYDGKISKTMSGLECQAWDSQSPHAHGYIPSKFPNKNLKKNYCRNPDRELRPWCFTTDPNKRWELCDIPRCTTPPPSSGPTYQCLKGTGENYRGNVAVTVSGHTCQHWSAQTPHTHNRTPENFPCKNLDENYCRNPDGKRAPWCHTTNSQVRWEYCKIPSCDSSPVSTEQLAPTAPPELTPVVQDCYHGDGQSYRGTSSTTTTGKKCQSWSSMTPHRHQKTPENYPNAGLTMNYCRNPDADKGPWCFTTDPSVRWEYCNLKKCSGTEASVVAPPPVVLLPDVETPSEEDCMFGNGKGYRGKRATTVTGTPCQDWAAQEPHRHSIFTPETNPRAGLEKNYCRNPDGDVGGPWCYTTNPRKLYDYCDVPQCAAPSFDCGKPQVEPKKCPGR
Plasminogen, sequence (P00747 581-810 limits assumed): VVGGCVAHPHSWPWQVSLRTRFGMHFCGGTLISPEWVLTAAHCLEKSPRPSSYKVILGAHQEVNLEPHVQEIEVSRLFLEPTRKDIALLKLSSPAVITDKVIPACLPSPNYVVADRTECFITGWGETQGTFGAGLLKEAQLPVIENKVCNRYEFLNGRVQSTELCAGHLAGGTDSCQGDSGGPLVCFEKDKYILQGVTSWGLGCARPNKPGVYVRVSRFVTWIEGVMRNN

Serine protease 1 = Serine protease 1 (Homo sapiens, UniProt P07477); assay: In vitro inhibitory activity against serine protease Trypsin
Serine protease 1, sequence (P07477 whole entry): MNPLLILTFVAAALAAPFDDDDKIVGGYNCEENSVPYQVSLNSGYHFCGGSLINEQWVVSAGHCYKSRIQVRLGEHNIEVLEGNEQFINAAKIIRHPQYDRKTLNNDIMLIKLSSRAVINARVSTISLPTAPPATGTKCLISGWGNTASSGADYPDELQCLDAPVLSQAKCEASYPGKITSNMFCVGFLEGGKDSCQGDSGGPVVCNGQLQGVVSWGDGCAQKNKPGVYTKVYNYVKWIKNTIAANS

Coagulation factor X = Coagulation factor X (Homo sapiens, UniProt P00742); assay: In vitro inhibitory activity against serine protease FXa
Coagulation factor X, sequence (P00742 41-179 limits assumed): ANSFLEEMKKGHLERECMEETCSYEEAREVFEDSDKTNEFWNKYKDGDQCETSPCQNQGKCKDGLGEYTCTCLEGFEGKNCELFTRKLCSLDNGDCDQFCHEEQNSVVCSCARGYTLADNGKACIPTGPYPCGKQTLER
Coagulation factor X, sequence (P00742 235-488 limits assumed): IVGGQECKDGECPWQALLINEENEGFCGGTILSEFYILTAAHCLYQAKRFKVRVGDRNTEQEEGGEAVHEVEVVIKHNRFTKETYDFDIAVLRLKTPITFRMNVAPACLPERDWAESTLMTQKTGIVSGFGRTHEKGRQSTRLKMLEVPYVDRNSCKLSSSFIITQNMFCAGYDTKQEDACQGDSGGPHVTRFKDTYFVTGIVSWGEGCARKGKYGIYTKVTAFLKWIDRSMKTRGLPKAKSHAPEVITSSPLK

[5] = In vitro metabolic potential in human liver microsomes; format: ADME, Microsome
Homo sapiens = organism: Homo sapiens; assay: The apparent permeability coefficient (Papp) was quantitated in the human Caco-2 monolayer assay; format: functional

| Compound | Ki (Prothrombin) | further results |
| --- | --- | --- |
| CS(=O)(=O)c1ccccc1S(=O)(=O)Oc1cc(Cl)cc(OCCCON=C(N)N)c1 | 0.0394 µM |  |
| COc1cc(OCCCONC(=N)N)cc(OS(=O)(=O)c2ccccc2S(C)(=O)=O)c1 | 0.0346 µM |  |
| Cc1cc(OCCCON=C(N)N)cc(OS(=O)(=O)c2cccc3cnccc23)c1 | 0.0132 µM |  |
| Cc1cc(OCCCONC(=N)N)cc(OS(=O)(=O)c2cccc3cccnc23)c1 | 0.0067 µM |  |
| Cc1cc(OCCCONC(=N)N)cc(OS(=O)(=O)c2ccccc2S(=O)(=O)c2ccccc2)c1 | 0.0048 µM |  |
| Cc1cc(OCCCONC(=N)N)cc(OS(=O)(=O)c2ccc(S(C)(=O)=O)cc2S(C)(=O)=O)c1 | 0.749 µM |  |
| CCc1cc(OCCCONC(=N)N)cc(OS(=O)(=O)c2ccccc2S(C)(=O)=O)c1 | 0.0297 µM |  |
| Cc1cc(OCC(F)CON=C(N)N)cc(OS(=O)(=O)c2ccccc2S(C)(=O)=O)c1 (stereo not drawn) | 0.114 µM |  |
| Cc1cc(OCC(O)CON=C(N)N)cc(OS(=O)(=O)c2ccccc2S(C)(=O)=O)c1 (stereo not drawn) | 0.137 µM |  |
| Cc1cc(OCCCON=C(N)N)cc(OS(=O)(=O)c2cccc(S(C)(=O)=O)c2)c1 | 0.204 µM |  |
| C=C(CONC(=N)N)COc1cc(C)cc(OS(=O)(=O)c2ccccc2S(C)(=O)=O)c1 | 0.0324 µM |  |
| Cc1cc(OCCCONC(=N)N)cc(OS(=O)(=O)c2ccccc2S(C)(=O)=O)c1 |  | Ki (Neutrophil elastase): > 22 µM; Microsomal stability (Rattus norvegicus): 69.5 pg min-1 (mg of protein)-1; pKa [1]: 7.05; half-life [2]: 7.3 h; clearance [3]: 6.9 mL/min/kg; bioavailability [4]: 95%; Microsomal stability (Mus musculus): 30.8 pg min-1 (mg of protein)-1; Microsomal stability (Canis familiaris): 21.1 pg min-1 (mg of protein)-1; Ki (Chymotrypsinogen B): > 22 µM; Ki (Plasminogen): > 22 µM; Ki (Serine protease 1): > 22 µM; Ki (Coagulation factor X): > 22 µM; Microsomal stability [5]: 50.4 pg min-1 (mg of protein)-1 |
| Cc1cc(OCCCONC(=N)N)cc(OS(=O)(=O)c2ccc3c(c2)S(=O)(=O)CC3)c1 | 0.102 µM |  |
| Cc1cc(OCCCON=C(N)N)cc(OS(=O)(=O)c2ccccc2S(C)(=O)=O)c1 |  | Papp (Homo sapiens): 2.4 ×10⁻⁶ cm/s |
| COc1ccccc1S(=O)(=O)Oc1cc(C)cc(OCCCONC(=N)N)c1 | 0.0067 µM |  |
| Cc1cc(OCCCON=C(N)N)cc(OS(=O)(=O)c2cccc3c2NCCC3)c1 | 0.031 µM |  |
| CS(=O)(=O)c1ccccc1S(=O)(=O)Oc1cc(F)cc(OCC2(CON=C(N)N)CC2)c1 | 0.0493 µM |  |
| Cc1cc(OCCCONC(=N)N)cc(OS(=O)(=O)c2ccccc2C#N)c1 | 0.0099 µM |  |
| CS(=O)(=O)c1ccccc1S(=O)(=O)Oc1cc(CO)cc(OCC2(CON=C(N)N)CC2)c1 | 0.403 µM |  |
| Cc1cc(OCCCON=C(N)N)cc(OS(=O)(=O)c2ccccc2N)c1 | 0.0866 µM |  |
| Cc1cc(OCC(F)(F)CON=C(N)N)cc(OS(=O)(=O)c2ccccc2S(C)(=O)=O)c1 | 0.364 µM |  |

From ChEMBL document CHEMBL1136712, “Oxyguanidines: application to non-peptidic phenyl-based thrombin inhibitors” (Bioorg Med Chem Lett, 2003)
